22 molecules from patent publication US9447028B2, “Therapeutic aryl-amido-aryl compounds and their use” (King's College London, priority 2009, dated 2016) can be followed below.

Common to all, as to type: cell-based
One experiment deals with T1, RARα (Homo sapiens, UniProt P10276).
T1 construct: gal4 (fusion partner); expressed in transfected cells; host or cells: COS-7
T1 sequence (P10276 183-417 limits assumed): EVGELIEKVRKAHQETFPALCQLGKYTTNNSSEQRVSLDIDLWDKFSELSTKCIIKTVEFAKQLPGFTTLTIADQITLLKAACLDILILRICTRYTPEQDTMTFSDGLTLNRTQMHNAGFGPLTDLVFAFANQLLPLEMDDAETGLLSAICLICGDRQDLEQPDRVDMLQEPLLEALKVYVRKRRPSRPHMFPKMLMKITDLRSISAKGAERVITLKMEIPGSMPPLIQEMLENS
Nature of the experiment: Transactivation assay for RAR alpha (gal4-RAR fusion, luciferase reporter, COS-7 cells). The note with it: for RARα/RARβ ratio (*): fold-selectivity for RARα over RARβ; for RARα activity ratio: ratio of test compound EC50 to that of atRA on the same plate; for Improvement (RARα activity ratio) / Improvement (RARα/RARβ ratio): compared with XXX-03. The method, then:
(§1) Transcriptional transactivation assays were performed with gal4 fusion receptor constructs, created using each of the RAR ligand binding domains, co-transfected with the pFR-luc (Stratagene™) reporter construct in COS-7 cells.
(§2) Briefly, on day 1, 96 well plates were seeded with 8000 cells per well then left to recover overnight. On day 2, the cells were co-transfected with 100 ng of reporter plasmid and 10 ng of the appropriate receptor plasmid per well using lipofectamine (Invitrogen™). On day 3, the lipofectamine containing media was replaced by a DMEM without phenol red, followed by the addition of test compound dissolved in 1 μL of DMSO to each well's 100 μL total volume. Finally, on day 4, the cells were lysed and their luciferase substrate was provided by the BrightGlo™ reagent (Promega™), the plates were then read on the MicroBeta TriLux™ (Perkin Elmer™).
(§3) Where replicate data has been generated, the data are quoted as a ratio of the mean EC50 from the separate experiments.
A general note: In a reporter assay the amount or activity of a reporter protein is the signal.

Another experiment deals with T2, RARβ (Homo sapiens, UniProt P10826).
T2 construct: gal4 (fusion partner); expressed in transfected cells; host or cells: COS-7
T2 sequence (P10826 183-417 limits assumed): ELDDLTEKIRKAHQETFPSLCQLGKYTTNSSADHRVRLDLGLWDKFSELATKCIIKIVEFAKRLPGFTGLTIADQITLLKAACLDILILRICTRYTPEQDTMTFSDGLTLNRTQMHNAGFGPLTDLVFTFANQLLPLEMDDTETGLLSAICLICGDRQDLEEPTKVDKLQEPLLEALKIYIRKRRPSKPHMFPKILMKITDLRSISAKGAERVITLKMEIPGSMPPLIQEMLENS
As to the kind of experiment: Transactivation assay for RAR beta (gal4-RAR fusion, luciferase reporter, COS-7 cells). The note with it: ratio of test compound EC50 to that of atRA; inactive = no agonist action at the highest concentration tested. The method, then:
as §1, §2, §3

For another experiment, the target named is T3, RARγ (Homo sapiens, UniProt P13631).
T3 construct: gal4 (fusion partner); expressed in transfected cells; host or cells: COS-7
T3 sequence (P13631 185-419 limits assumed): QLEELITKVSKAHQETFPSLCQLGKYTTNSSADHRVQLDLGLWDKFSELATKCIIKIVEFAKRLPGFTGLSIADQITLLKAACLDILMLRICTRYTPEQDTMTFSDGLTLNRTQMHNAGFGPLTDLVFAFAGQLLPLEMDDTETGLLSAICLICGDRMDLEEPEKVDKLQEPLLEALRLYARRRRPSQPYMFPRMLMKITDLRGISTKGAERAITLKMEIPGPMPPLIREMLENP
Nature of the experiment: Transactivation assay for RAR gamma (gal4-RAR fusion, luciferase reporter, COS-7 cells). The conditions noted are these: ratio of test compound EC50 to that of atRA; inactive = no agonist action at the highest concentration tested. The method, then:
as §1, §2, §3

Consider `Cc1cc(NC(=O)c2cc(OC(C)C)c(Br)c(OC(C)C)c2)ccc1C(=O)O` [AAA-111, 4-(4-Bromo-3,5-diisopropoxybenzamido)-2-methylbenzoic acid], for which, at RARα, the “RARα/RARβ ratio (*)” value is 71 and the RARα activity ratio is listed as 10. Further, the RARβ activity ratio at RARβ is reported as 712. In addition, on RARγ, the RARγ activity ratio was 50000.
For the molecule `CCOc1c(Cl)cc(C(=O)Nc2ccc(C(=O)O)c(C(F)(F)F)c2)cc1Cl` [AAA-033, 4-(3,5-Dichloro-4-ethoxybenzamido)-2-(trifluoromethyl)benzoic acid], on RARα, the “RARα/RARβ ratio (*)” value is 1.5 and the RARα activity ratio stood at 13. Moreover, the RARβ activity ratio at RARβ worked out at 19. Besides, the RARγ activity ratio at RARγ is 148.
The matching figures for `Cc1cc(NC(=O)c2cc(Cl)c(OC(C)C)c(C(F)(F)F)c2)ccc1C(=O)O` [AAA-040, 4-(3-Chloro-4-isopropoxy-5-(trifluoromethyl)benzamido)-2-methylbenzoic acid]: 55, 1.1, 60 and 194.
As for `O=C(O)c1ccc(NC(=O)c2cc(Cl)c(OCC3CC3)c(Cl)c2)cc1` [AAA-010, 4-(3,5-Dichloro-4-(cyclopropylmethoxy)benzamido)benzoic acid], on RARα, the “Improvement (RARα activity ratio)” value is reported as ~0.9-fold and the “Improvement (RARα/RARβ ratio)” value is given as ~3.5-fold. Also, the RARβ activity ratio at RARβ is reported as 2530. The RARγ activity ratio result on RARγ is “inactive”.
Take `COc1c(Cl)cc(C(=O)Nc2ccc(C(=O)O)cc2)cc1C(F)(F)F` [AAA-035, 4-(3-Chloro-4-methoxy-5-(trifluoromethyl)benzamido)benzoic acid]: at RARα, the “RARα/RARβ ratio (*)” value is listed as 8700 and the RARα activity ratio was 0.30. Moreover, at RARβ, the RARβ activity ratio is listed as 2620. Also, the RARγ activity ratio at RARγ was found to be 87000.
Consider `CCC(CC)Oc1cc(C(=O)Nc2ccc(C(=O)O)c(C)c2)cc(Cl)c1OC` [AAA-102, 4-(3-Chloro-4-methoxy-5-(pentan-3-yloxy)benzamido)-2-methylbenzoic acid], for which, at RARα, the “RARα/RARβ ratio (*)” value was found to be 33 and the RARα activity ratio was 2.2. For the same molecule, the RARβ activity ratio at RARβ was 73. On RARγ, the RARγ activity ratio came to 833.
`CC(C)Oc1cc(C(=O)Nc2ccc(C(=O)O)cc2)cc(OC(C)C)c1Br` [AAA-107, 4-(4-Bromo-3,5-diisopropoxybenzamido)benzoic acid]: at RARα, the “RARα/RARβ ratio (*)” value is recorded as 135 and the RARα activity ratio is on record as 4.8. In addition, the RARβ activity ratio on RARβ came out at 647. Further, at RARγ, the RARγ activity ratio was 2833.
`CCOc1c(Cl)cc(C(=O)Nc2ccc(C(=O)O)c(Cl)c2)cc1Cl` [AAA-018, 2-Chloro-4-(3,5-dichloro-4-ethoxybenzamido)benzoic acid]: on RARα, the “RARα/RARβ ratio (*)” value is given as 64.0 and the RARα activity ratio was determined as 151. Further, at RARβ, the RARβ activity ratio is on record as 9660. Besides, the RARγ activity ratio entry at RARγ is “inactive”.
Turning to `CCCOc1c(Cl)cc(C(=O)Nc2ccc(C(=O)O)cc2)cc1Cl` [AAA-003, 4-(3,5-Dichloro-4-propoxybenzamido)benzoic acid], at RARα, the “Improvement (RARα activity ratio)” value was ~6.0-fold, the “Improvement (RARα/RARβ ratio)” value is listed as ~1.3-fold and the “RARα/RARβ ratio (*)” value is reported as 9.3. The RARβ activity ratio at RARβ was found to be 139. At RARγ, the RARγ activity ratio worked out at 1200.
As to `COc1c(Cl)cc(C(=O)Nc2ccc(C(=O)O)cc2F)cc1C(F)(F)F` [AAA-067, 4-(3-Chloro-4-methoxy-5-(trifluoromethyl)benzamido)-3-fluorobenzoic acid], on RARα, the “RARα/RARβ ratio (*)” value is reported as 6 and the RARα activity ratio is on record as 50. The RARβ activity ratio at RARβ is listed as 279. For the same molecule, the RARγ activity ratio on RARγ stood at 6047.
Turning to `O=C(O)c1ccc(NC(=O)c2cc(Cl)c(OCc3ccccc3)c(OCc3ccccc3)c2)cc1` [AAA-045, 4-(3,4-bis(benzyloxy)-5-chlorobenzamido)benzoic acid], on RARα, the “RARα/RARβ ratio (*)” value was found to be 39 and the RARα activity ratio came out at 7.3. Besides, on RARβ, the RARβ activity ratio was determined as 283. Also, the RARγ activity ratio on RARγ worked out at 3651.
The matching figures for `CCOc1c(F)cc(C(=O)Nc2ccc(C(=O)O)cc2)cc1F` [AAA-073, 4-(4-Ethoxy-3,5-difluorobenzamido)benzoic acid]: 6, 19, 117 and 220.
With `CCOc1c(OC2CCCC2)cc(C(=O)Nc2ccc(C(=O)O)cc2)cc1OC1CCCC1` [AAA-058, 4-(3,5-Bis(cyclopentyloxy)-4-ethoxybenzamido)benzoic acid], on RARα, the “RARα/RARβ ratio (*)” value stood at 145 and the RARα activity ratio was 29. In addition, the RARβ activity ratio on RARβ is listed as 4200. For the same molecule, the RARγ activity ratio at RARγ is on record as 550.
Turning to `COc1c(Cl)cc(C(=O)Nc2ccc(C(=O)O)c(F)c2)cc1OC1CCC1` [AAA-100, 4-(3-Chloro-5-cyclobutoxy-4-methoxybenzamido)-2-fluorobenzoic acid], at RARα, the “RARα/RARβ ratio (*)” value amounted to 99 and the RARα activity ratio came out at 33. Further, the RARβ activity ratio at RARβ is recorded as 3273. For the same molecule, the RARγ activity ratio on RARγ was determined as 11818.
The matching figures for `CC(C)(C)Oc1cc(C(=O)Nc2ccc(C(=O)O)cc2)cc(Cl)c1OC(C)(C)C` [AAA-048, 4-(3,4-Di-tert-butoxy-5-chlorobenzamido)benzoic acid]: 44, 0.86, 38 and 162.
The matching figures for `CC(C)Oc1cc(C(=O)Nc2ccc(C(=O)O)c(O)c2)cc(OC(C)C)c1Br` [AAA-109, 4-(4-Bromo-3,5-diisopropoxybenzamido)-2-hydroxybenzoic acid]: 396, 4, 1583 and 792000.
The matching figures for `Cc1cc(NC(=O)c2cc(Br)c(OC(C)C)c(Br)c2)ccc1C(=O)O` [AAA-052, 4-(3,5-Dibromo-4-isopropoxybenzamido)-2-methylbenzoic acid]: 84, 0.25, 21 and 1923.
`CC(C)(C)Oc1cc(C(=O)Nc2ccc(C(=O)O)cc2)cc(OC(C)(C)C)c1OC(C)(C)C` [AAA-060, 4-(3,4,5-Tri-tert-butoxybenzamido)benzoic acid]: on RARα, the “RARα/RARβ ratio (*)” value worked out at 50 and the RARα activity ratio came to 45. Moreover, the RARβ activity ratio on RARβ is recorded as 2267. Further, at RARγ, the RARγ activity ratio worked out at 30.
With `CCOc1c(Cl)cc(C(=O)Nc2ccc(C(=O)O)c(C)c2)cc1Cl` [AAA-019, 4-(3,5-Dichloro-4-ethoxybenzamido)-2-methylbenzoic acid], at RARα, the “Improvement (RARα activity ratio)” value is given as ~100-fold and the “Improvement (RARα/RARβ ratio)” value is ~12-fold. Further, on RARβ, the RARβ activity ratio worked out at 74. For the same molecule, the RARγ activity ratio on RARγ was 136.
As to `COC(=O)c1ccc(NC(=O)c2cc(Cl)c(OC3CCCC3)c(Cl)c2)cc1` [AAA-002, Methyl 4-(3,5-dichloro-4-(cyclopentyloxy)benzamido)benzoate], at RARα, the “RARα/RARβ ratio (*)” value worked out at 58.0 and the RARα activity ratio is 50. In addition, at RARβ, the RARβ activity ratio was determined as 2900. On RARγ, the RARγ activity ratio entry was “inactive”.
The like results for `CCOc1c(Br)cc(C(=O)Nc2ccc(C(=O)O)c(C)c2)cc1C(F)(F)F` [AAA-071, 4-(3-Bromo-4-ethoxy-5-(trifluoromethyl)benzamido)-2-methylbenzoic acid] were, in that order, 31, 5.2, 160 and 13333.
For `O=C(O)c1ccc(NC(=O)c2cc(Cl)c(OCc3ccccc3)c(Cl)c2)cc1` [AAA-005, 4-(4-(Benzyloxy)-3,5-dichlorobenzamido)benzoic acid], at RARα, the “Improvement (RARα activity ratio)” value was ~1.3-fold and the “Improvement (RARα/RARβ ratio)” value was ~7.4-fold. In addition, the RARβ activity ratio at RARβ was determined as 3570. In addition, the RARγ activity ratio at RARγ is on record as 3770.
